Assay results reported in patent US8703199B2, “Pharmaceutical compositions of adsorbates of amorphous drug” (Bend Research, Inc., priority 2001, dated 2014).
Values belong to the molecule of their own block, whether it stands above or below them.

Tests used:
Format in all cases: physicochemical
[1] = in vitro dissolution test, microcentrifuge method, Drug 3 in 0.5 wt % MFD solution
Experimental: The adsorbate of Example 17 was evaluated in an in vitro dissolution test as in Example 2 using 1.44 mg of the adsorbate of […], or 0.36 mg of crystalline Drug 3 (Control 3) in a microcentrifuge tube with 1.8 ml of 0.5 wt % MFD solution. Samples were analyzed by HPLC at a UV absorbance of 254 nm using a Phenomex ODS 20 column and a mobile phase consisting of 60% 0.02 M KH2PO4(pH 3.0)/40% acetonitrile.
(§1) The drug/substrate adsorbate of Example 35 was evaluated in an in vitro dissolution test using the procedure described in Example 18, except that 1.44 mg of the adsorbate, or 0.36 mg of Control 3B, was added to a microcentrifuge tube containing 1.8 mL 0.5 wt % MFD solution at pH 6.5.
as §1, with “drug/concentration-enhancing polymer/substrate” for “drug/substrate”, “37” for “35”, “1.96” for “1.44”, “0.39” for “0.36”, “3A,” for “3B,”

[2] = accelerated storage test of physical stability (PXRD)
Experimental: The stability of Example 1 adsorbate was evaluated in an accelerated storage test. The adsorbate was stored under elevated temperature and humidity conditions to increase the rate of physical changes occurring in the material in order to simulate a longer storage interval in a typical storage environment. Samples of the adsorbate and Control 1B were stored at 40° C./75% relative humidity (RH). Samples were analyzed using a powder X-ray diffraction (PXRD) technique using a Bruker AXS D8 Advance diffractometer as follows. The X-ray tube (KCu, 1.54184 Å) was operated at a voltage of 45 kV and a current of 40 mA with the beam focused through a Göbel mirror and a series of slits into a line focus. Diffractograms were typically collected over the 2□ range of 4° to 40° with a step size of 0.02°/step. Data were collected for a minimum time of 2.4 sec/step. Scans were obtained by holding the tube at a constant angle (to keep the illuminated area of the sample constant) and scanning a scintillation-counter detector fitted with a thin film collimator through 2□. […]
Samples of the adsorbate of Example 9 were assessed for physical stability by storing them for 12 weeks at 50° C./75% RH. […]
The physical stability of the adsorbate of Example 23 was evaluated by storing samples of the adsorbate at 40° C. and 75% relative humidity and periodically withdrawing samples and analyzing them by PXRD.

[3] = in vitro dissolution test, microcentrifuge method, Drug 4 in PBS; parameters: AUC / AUC90: concentration or dose not given beside the values
Experimental: The tubes were placed in a 37° C. temperature-controlled chamber, and 1.8 mL phosphate buffered saline (PBS) at pH 6.5 and 290 mOsm/kg was added. The solutions were quickly mixed using a vortex mixer for about 60 seconds, and then centrifuged at 13,000 G at 37° C. for […]. The resulting supernatant solution was then sampled and diluted 1:5 (by volume) with methanol. Diluted samples were analyzed by high-performance liquid chromatography (HPLC) at a UV absorbance of 245 nm using a Phenomenex Kromasil C4 column and a mobile phase of 45% (0.2% H3PO4)/55% acetonitrile. After sampling, the contents of the tubes were mixed on the vortex mixer and allowed to stand undisturbed at 37° C. until the next sample was taken. Samples were collected at 4, 10, 20, 40, 90, and 1200 minutes. […]
The adsorbate of Example 23 was evaluated in the in vitro dissolution test described in Example 22. In this test, 45 mg of the adsorbate of Example 23 was added to the microcentrifuge tubes used in the test. Samples for this test were collected at 4, 10, 20, 40, 90, and 1200 minutes.

[4] = in vitro dissolution test, microcentrifuge method, Drug 2 in PBS (alone or with Pluronic F-127); parameters: AUC / AUC90: concentration or dose not given beside the values; conditions: for AUC / Drug 2 Concentration: PBS pH 6.5
Experimental: The tubes were placed in a 37° C. temperature-controlled chamber, and 1.8 mL phosphate buffered saline (PBS) at pH 6.5 and 290 mOsm/kg was added. The solutions were quickly mixed using a vortex mixer for about 60 seconds, and then centrifuged at 13,000 G at 37° C. for […]. The resulting supernatant solution was then sampled and diluted 1:5 (by volume) with methanol. Diluted samples were analyzed by high-performance liquid chromatography (HPLC) at a UV absorbance of 245 nm using a Phenomenex Kromasil C4 column and a mobile phase of 45% (0.2% H3PO4)/55% acetonitrile. After sampling, the contents of the tubes were mixed on the vortex mixer and allowed to stand undisturbed at 37° C. until the next sample was taken. Samples were collected at 4, 10, 20, 40, 90, and 1200 minutes.
This example illustrates that combining concentration-enhancing polymer with a drug/substrate adsorbate results in improved concentration enhancement. The adsorbate of Example 9, consisting of 25 wt % Drug 2 and 75 wt % CAB-O-SIL M-5P, was evaluated in an in vitro dissolution test using the procedure describe in Example 2, except that 7.2 mg of the adsorbate, or 1.8 mg of Control 2B, was added to a microcentrifuge tube containing 1.8 mL PBS alone, or 1.8 mL PBS with 3.6 mg of the concentration-enhancing polymer polyoxyethylene-polyoxypropylene block copolymer (Pluronic® F-127, available from BASF Corp.) HPLC analysis of Drug 2 was performed as described in Example 7. […]

[5] = in vitro dissolution test, microcentrifuge method, Drug 2 in 0.5 wt % MFD solution; conditions: for AUC / Drug 2 Concentration: 0.5 wt % MFD solution pH 6.5
Experimental: The adsorbate of Example 6 and the crystalline drug of Control 2A were evaluated in an in vitro dissolution test using a microcentrifuge method as in Example 2. In this test, 9 mg of the adsorbate of Example 6, or 1.8 mg of Control 2A, was added to a microcentrifuge tube. The tubes were placed in a 37° C. temperature-controlled chamber, and 1.8 mL of 0.5 wt % MFD solution at pH 6.5 and 290 mOsm/kg was added. The samples were quickly mixed using a vortex mixer for about 60 seconds. The samples were centrifuged at 13,000 G at 37° C. for 1 minute. The resulting supernatant solution was then sampled and diluted 1:5 (by volume) with methanol. Diluted samples were analyzed by HPLC at a UV absorbance of 256 nm using a Waters Symmetry C8 column and a mobile phase consisting of 15% (0.2% H3PO4)/85% methanol. The contents of the tubes were mixed on the vortex mixer and allowed to stand undisturbed at 37° C. until the next sample was taken. Samples were collected at 4, 10, 20, 40, 90, and 1200 minutes. […]

[6] = nuclear magnetic resonance (NMR) test of dissolved Drug 2 in deuterated MFD solution; conditions: after equilibration for 3 days
Experimental: The adsorbate of Example 9 and the crystalline drug of Control 2A were evaluated using a nuclear magnetic resonance (NMR) test. In this test, 0.690 mg of the adsorbate of Example 9, or 0.174 mg of Control 2, was added to a microcentrifuge tube. The tubes were placed in a 37° C. temperature-controlled chamber, and 1.7 mL for Example 9, or 1.8 mL for Control 2A, of 2 wt % deuterated MFD solution (d-MFD) at pH 6.5, 37° C., and 290 mOsm/kg was added. The samples were quickly mixed using a vortex mixer for 60 seconds. […] The supernatant was then carefully transferred to an 8 mm glass NMR tube for Example 9. […]
Fluorine spectra of the sample were recorded at 282.327 MHz on a Varian Gemini 2000, 300 MHz NMR equipped with a Nalorac 8 mm indirect detection probe. […] Drug resonances were integrated relative to the internal standard peak and the drug concentration determined. The given experiment time was calculated from the time the solvent was added to the solid sample until half of the time the spectrum had been acquired by the NMR. For example, when the spectra has been recorded for 2 hours after the sample was equilibrated for 30 minutes the time listed for the NMR result is 90 minutes. […]
The adsorbates of Example 13 and Example 14 were evaluated using the nuclear magnetic resonance (NMR) test described in Example 11. […]

[7] = 1200 min, 0.5 wt % MFD solution

SMILES: COc1ccc2c(c1)c(CC(=O)O)c(C)n2C(=O)c1ccc(Cl)cc1 [amorphous control, Indomethacin]
crystallization rate ([2]; 4 days at 40° C. and 75% relative humidity): 20 %/day
crystallinity of the drug ([2]; after 4 days of storage at 40° C. and 75% relative humidity, PXRD): more than 80%

SMILES: COc1ccc2c(c1)c(CC(=O)O)c(C)n2C(=O)c1ccc(Cl)cc1 [Control 4, Indomethacin]
AUC ([3]; 0 min): 0 µg·min/mL
Drug 4 Concentration ([3]; 0 min): 0 μgA/mL
AUC ([3]; 4 min): 630 µg·min/mL
Drug 4 Concentration ([3]; 4 min): 320 μgA/mL
AUC ([3]; 10 min): 2,600 min * μg/mL
Drug 4 Concentration ([3]; 10 min): 340 μgA/mL
AUC ([3]; 20 min): 7,300 min * μg/mL
Drug 4 Concentration ([3]; 20 min): 610 μgA/mL
AUC ([3]; 40 min): 8,100 min * μg/mL
Drug 4 Concentration ([3]; 40 min): 460 μgA/mL
AUC ([3]; 90 min): 41,700 min * μg/mL
Drug 4 Concentration ([3]; 90 min): 480 μgA/mL
AUC ([3]; 1200 min): 527,700 min * μg/mL
Drug 4 Concentration ([3]; 1200 min): 400 μgA/mL
AUC90 ([3]; Drug 4): 41,700 min * μg/mL

SMILES: CCOC(=O)N1c2ccc(C(F)(F)F)cc2[C@@H](N(Cc2cc(C(F)(F)F)cc(C(F)(F)F)c2)C(=O)OC)C[C@H]1CC [Control 2B, [2R,4S] 4-[(3,5-bis-trifluoromethyl-benzyl)-methoxycarbonyl-amino]-2-ethyl-6-trifluoromethyl-3,4-dihydro-2H-quinoline-1-carboxylic acid ethyl ester]
AUC ([4]; 0 min): 0 µg·min/mL
Drug 2 Concentration ([4]; 0 min): <1 μgA/mL
AUC ([4]; 4 min): <2 µg·min/mL
Drug 2 Concentration ([4]; 4 min): <1 μgA/mL
AUC ([4]; 10 min): <8 µg·min/mL
Drug 2 Concentration ([4]; 10 min): <1 μgA/mL
AUC ([4]; 20 min): <18 µg·min/mL
Drug 2 Concentration ([4]; 20 min): <1 μgA/mL
AUC ([4]; 40 min): <38 µg·min/mL
Drug 2 Concentration ([4]; 40 min): <1 μgA/mL
AUC ([4]; 90 min): <88 µg·min/mL
Drug 2 Concentration ([4]; 90 min): <1 μgA/mL
AUC ([4]; 1200 min): <1,200 min * μg/mL
Drug 2 Concentration ([4]; 1200 min): <1 μgA/mL
AUC90 ([4]; Drug 2, PBS): <88 µg·min/mL
C1200 ([4]; Drug 2, PBS): <1 μgA/mL

SMILES: CCOC(=O)N1c2ccc(C(F)(F)F)cc2[C@@H](N(Cc2cc(C(F)(F)F)cc(C(F)(F)F)c2)C(=O)OC)C[C@H]1CC [Control 2A, [2R,4S] 4-[(3,5-bis-trifluoromethyl-benzyl)-methoxycarbonyl-amino]-2-ethyl-6-trifluoromethyl-3,4-dihydro-2H-quinoline-1-carboxylic acid ethyl ester]
AUC ([5]; 0 min): 0 µg·min/mL
Drug 2 Concentration ([5]; 0 min): 0 µg/mL
AUC ([5]; 4 min): 6 µg·min/mL
Drug 2 Concentration ([5]; 4 min): 3 µg/mL
AUC ([5]; 10 min): 21 µg·min/mL
Drug 2 Concentration ([5]; 10 min): 2 µg/mL
AUC ([5]; 20 min): 71 µg·min/mL
Drug 2 Concentration ([5]; 20 min): 8 µg/mL
AUC ([5]; 40 min): 190 µg·min/mL
Drug 2 Concentration ([5]; 40 min): 4 µg/mL
AUC ([5]; 90 min): 570 µg·min/mL
Drug 2 Concentration ([5]; 90 min): 11 µg/mL
AUC ([5]; 1200 min): 14,700 min * μg/mL
Drug 2 Concentration ([5]; 1200 min): 15 µg/mL
AUC90 ([5]; Drug 2, 0.5 wt % MFD solution): 570 µg·min/mL
Cmax,90 ([5]; Drug 2, 0.5 wt % MFD solution): 11000 ng/mL
dissolved Drug 2 concentration [6]: 13 μgA/mL

Now from value to molecule:

AUC ([1]; 0 min, 0.5 wt % MFD solution): 0 µg·min/mL
Drug 3 Concentration ([1]; 0 min, 0.5 wt % MFD solution): 0 μgA/mL
AUC ([1]; 4 min, 0.5 wt % MFD solution): 0 µg·min/mL
Drug 3 Concentration ([1]; 4 min, 0.5 wt % MFD solution): 2 μgA/mL
AUC ([1]; 10 min, 0.5 wt % MFD solution): 0 µg·min/mL
Drug 3 Concentration ([1]; 10 min, 0.5 wt % MFD solution): 2 μgA/mL
AUC ([1]; 20 min, 0.5 wt % MFD solution): 0 µg·min/mL
Drug 3 Concentration ([1]; 20 min, 0.5 wt % MFD solution): 2 μgA/mL
AUC ([1]; 40 min, 0.5 wt % MFD solution): 100 µg·min/mL
Drug 3 Concentration ([1]; 40 min, 0.5 wt % MFD solution): 2 μgA/mL
AUC ([1]; 90 min, 0.5 wt % MFD solution): 200 µg·min/mL
Drug 3 Concentration ([1]; 90 min, 0.5 wt % MFD solution): 2 μgA/mL
AUC [1, 7]: 2,400 min * μg/mL
Drug 3 Concentration [1, 7]: 2 μgA/mL
AUC90 ([1]; Drug 3, 0.5% MFD): 200 µg·min/mL
C1200 ([1]; Drug 3, 0.5 wt % MFD solution): 2 μgA/mL
SMILES: O=C1Cc2cc(CCN3CCN(c4nsc5ccccc45)CC3)c(Cl)cc2N1 [Control 3B]

AUC ([1]; 0 min, 0.5 wt % MFD solution): 0 µg·min/mL
Drug 3 Concentration ([1]; 0 min, 0.5 wt % MFD solution, 0.36 mg crystalline drug added): 0 μgA/mL
Drug 3 Concentration ([1]; 1200 min, 0.5 wt % MFD solution, 0.36 mg crystalline drug added): 5 μgA/mL
Drug 3 Concentration ([1]; 1200 min, 0.5 wt % MFD solution, 0.39 mg crystalline drug added, pH 6.5): 9 μgA/mL
C1200 ([1]; Drug 3, 0.5 wt % MFD solution): 9 μgA/mL
Cmax,90 ([1]; Drug 3, 0.5 wt % MFD solution): 3000 ng/mL
SMILES: O=C1Cc2cc(CCN3CCN(c4nsc5ccccc45)CC3)c(Cl)cc2N1 [Control 3A]
